According to ChEMBL document CHEMBL1201862, “PubChem BioAssay data set” (2004):
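Following 48 hours of exposure in 96-well plates, responses at five concentrations were used to interpolate endpoints linearly. GI50 marks 50% less growth.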 Active and inactive are the calls of the source. Cut-off read from the data, not from the text of the source: active = GI50 up to about 1.1 µM and inactive = higher.

Assays:
Experiment in all cases: NCI anticancer screen, dose series, 48 h
NCI-H460 = system: NCI-H460
NCI-H23 = system: NCI-H23
SF-539 = system: SF-539
PC-3 = system: PC-3
T47D = system: T47D
786-0 = system: 786-0
OVCAR-5 = system: OVCAR-5
SN12C = system: SN12C
DU-145 = system: DU-145
HOP-62 = system: HOP-62
SK-MEL-28 = system: SK-MEL-28
UACC-62 = system: UACC-62
LOX IMVI = system: LOX IMVI
CCRF-CEM = system: CCRF-CEM
OVCAR-3 = system: OVCAR-3
NCI-H226 = system: NCI-H226
U-251 = system: U-251
A498 = system: A498
IGROV-1 = system: IGROV-1
RXF 393 = system: RXF 393
UACC-257 = system: UACC-257
OVCAR-4 = system: OVCAR-4
SNB-75 = system: SNB-75
NCI-H522 = system: NCI-H522
SF-295 = system: SF-295
SK-MEL-2 = system: SK-MEL-2
ACHN = system: ACHN
MDA-MB-231 = system: MDA-MB-231
NCI/ADR-RES = system: NCI/ADR-RES
KM12 = system: KM12
MDA-N = system: MDA-N
HL-60 = system: HL-60
TK-10 = system: TK-10
SW-620 = system: SW-620
A549 = system: A549
HCT-15 = system: HCT-15
K562 = system: K562
Hs-578T = system: Hs-578T
HCT-116 = system: HCT-116
UO-31 = system: UO-31
SF-268 = system: SF-268
Malme-3M = system: Malme-3M
COLO 205 = system: COLO 205
MCF7 = system: MCF7
BT-549 = system: BT-549
HOP-92 = system: HOP-92
SK-MEL-5 = system: SK-MEL-5
SNB-19 = system: SNB-19
SR = system: SR
MOLT-4 = system: MOLT-4
EKVX = system: EKVX
M14 = system: M14
MDA-MB-435 = system: MDA-MB-435
CAKI-1 = system: CAKI-1
HT-29 = system: HT-29
OVCAR-8 = system: OVCAR-8
SK-OV-3 = system: SK-OV-3
HCC 2998 = system: HCC 2998
RPMI-8226 = system: RPMI-8226

SMILES: CC(C)=CCC[C@@H](C)C1=C(O)C(O)C(C)=C2N=C(c3ccccc3)C(=O)OC21 (some centres undefined)
- GI50 (NCI-H460): 1.19 µM (inactive)
- GI50 (NCI-H23): 0.726 µM (active)
- GI50 (SF-539): 4.33 µM (inactive)
- GI50 (PC-3): 8.36 µM (inactive)
- GI50 (T47D): 1.21 µM (inactive)
- GI50 (786-0): 7.8 µM (inactive)
- GI50 (OVCAR-5): 18.1 µM (inactive)
- GI50 (SN12C): 1.43 µM (inactive)
- GI50 (DU-145): 4.36 µM (inactive)
- GI50 (HOP-62): 3.71 µM (inactive)
- GI50 (SK-MEL-28): 3.07 µM (inactive)
- GI50 (UACC-62): 1.07 µM (active)
- GI50 (LOX IMVI): 4.71 µM (inactive)
- GI50 (CCRF-CEM): 2.4 µM (inactive)
- GI50 (OVCAR-3): 1.24 µM (inactive)
- GI50 (NCI-H226): 2.88 µM (inactive)
- GI50 (U-251): 1.57 µM (inactive)
- GI50 (A498): 2.81 µM (inactive)
- GI50 (IGROV-1): 1.22 µM (inactive)
- GI50 (RXF 393): 1.35 µM (inactive)
- GI50 (UACC-257): 2.88 µM (inactive)
- GI50 (OVCAR-4): 4.41 µM (inactive)
- GI50 (SNB-75): 3.7 µM (inactive)
- GI50 (NCI-H522): 0.624 µM (active)
- GI50 (SF-295): 2.42 µM (inactive)
- GI50 (SK-MEL-2): 1.61 µM (inactive)
- GI50 (ACHN): 2.16 µM (inactive)
- GI50 (MDA-MB-231): 2.52 µM (inactive)
- GI50 (NCI/ADR-RES): 0.794 µM (active)
- GI50 (KM12): 4.44 µM (inactive)
- GI50 (MDA-N): 7.57 µM (inactive)
- GI50 (HL-60): 0.521 µM (active)
- GI50 (TK-10): 1.9 µM (inactive)
- GI50 (SW-620): 3.16 µM (inactive)
- GI50 (A549): 2.65 µM (inactive)
- GI50 (HCT-15): 2.31 µM
- GI50 (K562): 1.24 µM (inactive)
- GI50 (Hs-578T): 1.87 µM (inactive)
- GI50 (HCT-116): 4.03 µM (inactive)
- GI50 (UO-31): 5.22 µM (inactive)
- GI50 (SF-268): 1.53 µM (inactive)
- GI50 (Malme-3M): 1.14 µM (inactive)
- GI50 (COLO 205): 9.38 µM (inactive)
- GI50 (MCF7): 1.21 µM (inactive)
- GI50 (BT-549): 2.15 µM (inactive)
- GI50 (HOP-92): 0.723 µM (active)
- GI50 (SK-MEL-5): 1.29 µM (inactive)
- GI50 (SNB-19): 3.33 µM (inactive)
- GI50 (SR): > 9.84 µM (inactive)
- GI50 (MOLT-4): > 7.41 µM (inactive)
- GI50 (EKVX): 8.85 µM (inactive)
- GI50 (M14): 4.71 µM (inactive)
- GI50 (MDA-MB-435): 3.18 µM (inactive)
- GI50 (CAKI-1): 2.39 µM (inactive)
- GI50 (HT-29): 6.81 µM (inactive)
- GI50 (OVCAR-8): 0.933 µM (active)
- GI50 (SK-OV-3): 1.12 µM (inactive)
- GI50 (HCC 2998): 6.62 µM (inactive)

SMILES: Cn1c2ccccc2c2[nH]c3ccccc3c(=O)c21
- GI50 (NCI-H460): > 100 µM (inactive)
- GI50 (NCI-H23): > 100 µM (inactive)
- GI50 (SF-539): > 100 µM (inactive)
- GI50 (PC-3): > 100 µM (inactive)
- GI50 (T47D): 43 µM (inactive)
- GI50 (786-0): > 100 µM (inactive)
- GI50 (OVCAR-5): > 100 µM (inactive)
- GI50 (SN12C): > 100 µM (inactive)
- GI50 (DU-145): > 100 µM (inactive)
- GI50 (HOP-62): > 100 µM (inactive)
- GI50 (SK-MEL-28): > 100 µM (inactive)
- GI50 (UACC-62): > 100 µM (inactive)
- GI50 (LOX IMVI): 31.8 µM (inactive)
- GI50 (CCRF-CEM): > 100 µM (inactive)
- GI50 (OVCAR-3): > 100 µM (inactive)
- GI50 (NCI-H226): > 100 µM (inactive)
- GI50 (U-251): > 100 µM (inactive)
- GI50 (A498): > 100 µM (inactive)
- GI50 (IGROV-1): > 100 µM (inactive)
- GI50 (RXF 393): > 100 µM (inactive)
- GI50 (RPMI-8226): > 100 µM (inactive)
- GI50 (UACC-257): > 100 µM (inactive)
- GI50 (OVCAR-4): > 10 µM (inactive)
- GI50 (SNB-75): 69.2 µM (inactive)
- GI50 (SF-295): > 100 µM (inactive)
- GI50 (SK-MEL-2): > 100 µM (inactive)
- GI50 (ACHN): > 100 µM (inactive)
- GI50 (MDA-MB-231): > 100 µM (inactive)
- GI50 (NCI/ADR-RES): > 100 µM (inactive)
- GI50 (KM12): > 100 µM (inactive)
- GI50 (MDA-N): > 100 µM (inactive)
- GI50 (HL-60): > 100 µM (inactive)
- GI50 (TK-10): > 100 µM (inactive)
- GI50 (SW-620): 88.3 µM (inactive)
- GI50 (A549): > 100 µM (inactive)
- GI50 (HCT-15): > 100 µM
- GI50 (K562): > 100 µM (inactive)
- GI50 (Hs-578T): > 100 µM (inactive)
- GI50 (HCT-116): 53.3 µM (inactive)
- GI50 (UO-31): > 100 µM (inactive)
- GI50 (SF-268): > 100 µM (inactive)
- GI50 (Malme-3M): > 100 µM (inactive)
- GI50 (COLO 205): > 100 µM (inactive)
- GI50 (MCF7): > 100 µM (inactive)
- GI50 (BT-549): > 100 µM (inactive)
- GI50 (HOP-92): 65.5 µM (inactive)
- GI50 (SK-MEL-5): 46.2 µM (inactive)
- GI50 (SNB-19): 93.3 µM (inactive)
- GI50 (SR): > 100 µM (inactive)
- GI50 (MOLT-4): 50.6 µM (inactive)
- GI50 (EKVX): > 100 µM (inactive)
- GI50 (M14): > 100 µM (inactive)
- GI50 (MDA-MB-435): > 100 µM (inactive)
- GI50 (CAKI-1): > 100 µM (inactive)
- GI50 (HT-29): > 100 µM (inactive)
- GI50 (OVCAR-8): > 100 µM (inactive)
- GI50 (SK-OV-3): > 100 µM (inactive)
- GI50 (HCC 2998): > 100 µM (inactive)

SMILES: CN(C)CCn1c(=O)c2ccc3c4c(nn3CCN(C)C)c3cc([N+](=O)[O-])ccc3n(c1=O)c24
- GI50 (NCI-H460): < 0.0128 µM (active)
- GI50 (NCI-H23): 0.105 µM (active)
- GI50 (SF-539): 0.394 µM (active)
- GI50 (PC-3): 0.0641 µM (active)
- GI50 (T47D): 0.249 µM (active)
- GI50 (786-0): < 0.0124 µM (active)
- GI50 (OVCAR-5): < 0.0253 µM (active)
- GI50 (SN12C): < 0.0207 µM (active)
- GI50 (DU-145): 0.0508 µM (active)
- GI50 (HOP-62): < 0.0212 µM (active)
- GI50 (SK-MEL-28): 0.51 µM (active)
- GI50 (UACC-62): 0.337 µM (active)
- GI50 (LOX IMVI): 0.0447 µM (active)
- GI50 (CCRF-CEM): < 0.0125 µM (active)
- GI50 (OVCAR-3): 0.0883 µM (active)
- GI50 (NCI-H226): 0.518 µM (active)
- GI50 (U-251): 0.0281 µM (active)
- GI50 (A498): 0.317 µM (active)
- GI50 (IGROV-1): 0.0708 µM (active)
- GI50 (RXF 393): 0.12 µM (active)
- GI50 (RPMI-8226): 0.0194 µM (active)
- GI50 (UACC-257): 0.617 µM (active)
- GI50 (OVCAR-4): 0.0189 µM (active)
- GI50 (NCI-H522): < 0.01 µM (active)
- GI50 (SF-295): 0.0585 µM (active)
- GI50 (SK-MEL-2): 0.133 µM (active)
- GI50 (ACHN): 0.0384 µM (active)
- GI50 (MDA-MB-231): 0.0929 µM (active)
- GI50 (NCI/ADR-RES): 0.0859 µM (active)
- GI50 (KM12): 0.0263 µM (active)
- GI50 (MDA-N): 0.0724 µM (active)
- GI50 (HL-60): 0.09 µM (active)
- GI50 (TK-10): 0.212 µM (active)
- GI50 (SW-620): < 0.0134 µM (active)
- GI50 (A549): 0.0264 µM (active)
- GI50 (HCT-15): 0.0261 µM
- GI50 (K562): 0.0394 µM (active)
- GI50 (Hs-578T): 0.144 µM (active)
- GI50 (HCT-116): < 0.0154 µM (active)
- GI50 (UO-31): 0.0661 µM (active)
- GI50 (SF-268): < 0.0256 µM (active)
- GI50 (Malme-3M): 0.328 µM (active)
- GI50 (COLO 205): 0.0548 µM (active)
- GI50 (MCF7): 0.0667 µM (active)
- GI50 (BT-549): 0.906 µM (active)
- GI50 (HOP-92): 0.8 µM (active)
- GI50 (SK-MEL-5): 0.594 µM (active)
- GI50 (SNB-19): 0.0438 µM (active)
- GI50 (SR): < 0.01 µM (active)
- GI50 (MOLT-4): < 0.01 µM (active)
- GI50 (EKVX): 0.115 µM (active)
- GI50 (M14): 0.222 µM (active)
- GI50 (MDA-MB-435): 0.0675 µM (active)
- GI50 (CAKI-1): 0.0481 µM (active)
- GI50 (HT-29): < 0.0112 µM (active)
- GI50 (OVCAR-8): 0.049 µM (active)
- GI50 (SK-OV-3): 0.0783 µM (active)
- GI50 (HCC 2998): 0.0411 µM (active)
